# Experiments:
# Assay type in all cases: functional
# Escherichia coli [1] = assay: Antibacterial activity against Escherichia coli ATCC 25922 assessed as inhibition of bacterial growth by CLSI protocol based method
# Pseudomonas aeruginosa [2] = assay: Antibacterial activity Pseudomonas aeruginosa ATCC 27853 assessed as inhibition of bacterial growth by CLSI protocol based method
# Acinetobacter baumannii [3] = assay: Antibacterial activity against Acinetobacter baumannii ATCC 19606 assessed as inhibition of bacterial growth by CLSI protocol based method
# Klebsiella pneumoniae [4] = assay: Antibacterial activity against Klebsiella pneumoniae BAA ATCC 1706 assessed as inhibition of bacterial growth by CLSI protocol based method
# Escherichia coli [5] = assay: Antibacterial activity against ESBL positive Escherichia coli ATCC 35218 assessed as inhibition of bacterial growth by CLSI protocol based method
# Pseudomonas aeruginosa [6] = assay: Antibacterial activity Pseudomonas aeruginosa PAO1 assessed as inhibition of bacterial growth by CLSI protocol based method
# Klebsiella pneumoniae [7] = assay: Antibacterial activity against Klebsiella pneumoniae ATCC 700603 assessed as inhibition of bacterial growth by CLSI protocol based method
# Acinetobacter baumannii [8] = assay: Antibacterial activity against multi-drug resistant Acinetobacter baumannii clinical isolate 10 assessed as inhibition of bacterial growth by CLSI protocol based method
# Acinetobacter baumannii [9] = assay: Antibacterial activity against multi-drug resistant Acinetobacter baumannii clinical isolate 4 assessed as inhibition of bacterial growth by CLSI protocol based method
# Acinetobacter baumannii [10] = assay: Antibacterial activity against multi-drug resistant Acinetobacter baumannii clinical isolate 51 assessed as inhibition of bacterial growth by CLSI protocol based method
# Acinetobacter baumannii [11] = assay: Antibacterial activity against multi-drug resistant Acinetobacter baumannii clinical isolate 2 assessed as inhibition of bacterial growth by CLSI protocol based method
# Acinetobacter baumannii [12] = assay: Antibacterial activity against multi-drug resistant Acinetobacter baumannii clinical isolate 14 assessed as inhibition of bacterial growth by CLSI protocol based method
# Acinetobacter baumannii [13] = assay: Antibacterial activity against multi-drug resistant Acinetobacter baumannii clinical isolate 43 assessed as inhibition of bacterial growth by CLSI protocol based method
# Acinetobacter baumannii [14] = assay: Antibacterial activity against multi-drug resistant Acinetobacter baumannii clinical isolate 5 assessed as inhibition of bacterial growth by CLSI protocol based method
# Acinetobacter baumannii [15] = assay: Antibacterial activity against multi-drug resistant Acinetobacter baumannii clinical isolate 1 assessed as inhibition of bacterial growth by CLSI protocol based method
# Escherichia coli [16] = assay: Antibacterial activity against Escherichia coli CG-4 expressing MCR-1 and NDM-1 assessed as inhibition of bacterial growth by CLSI protocol based method
# Escherichia coli [17] = assay: Antibacterial activity against multi-drug resistant Escherichia coli clinical isolate 1 assessed as inhibition of bacterial growth by CLSI protocol based method
Structure (SMILES),MIC (Escherichia coli [1]) [µg/mL],MIC (Pseudomonas aeruginosa [2]) [µg/mL],MIC (Acinetobacter baumannii [3]) [µg/mL],MIC (Klebsiella pneumoniae [4]) [µg/mL],MIC (Escherichia coli [5]) [µg/mL],MIC (Pseudomonas aeruginosa [6]) [µg/mL],MIC (Klebsiella pneumoniae [7]) [µg/mL],MIC (Acinetobacter baumannii [8]) [µg/mL],MIC (Acinetobacter baumannii [9]) [µg/mL],MIC (Acinetobacter baumannii [10]) [µg/mL],MIC (Acinetobacter baumannii [11]) [µg/mL],MIC (Acinetobacter baumannii [12]) [µg/mL],MIC (Acinetobacter baumannii [13]) [µg/mL],MIC (Acinetobacter baumannii [14]) [µg/mL],MIC (Acinetobacter baumannii [15]) [µg/mL],MIC (Escherichia coli [16]) [µg/mL],MIC (Escherichia coli [17]) [µg/mL]
CC(C)(C)c1cc(/C=C/c2ccc(N3CCOCC3)cc2)cc(C(C)(C)C)[o+]1.O=S(=O)([O-])C(F)(F)F,> 100,> 100,> 100,> 100,> 100,> 100,> 100,–,–,–,–,–,–,–,–,–,–
CNC(C)[C@@H]1CC[C@@H](N)[C@@H](O[C@H]2[C@H](O)[C@@H](O[C@H]3OC[C@](C)(O)[C@H](NC)[C@H]3O)[C@H](N)C[C@@H]2N)O1.CN[C@@H]1[C@@H](O)[C@@H](O[C@@H]2[C@@H](O)[C@H](O[C@H]3O[C@H](C(C)N)CC[C@H]3N)[C@@H](N)C[C@H]2N)OC[C@]1(C)O.CN[C@@H]1[C@@H](O)[C@@H](O[C@@H]2[C@@H](O)[C@H](O[C@H]3O[C@H](CN)CC[C@H]3N)[C@@H](N)C[C@H]2N)OC[C@]1(C)O (stereo not given in full),–,0.78,0.78,1.56,–,0.2,6.25,> 100,> 100,> 100,> 100,> 100,> 100,> 100,> 100,–,–
CC(C)(C)c1cc(/C=C/c2ccc(N3CCCCC3)cc2)cc(C(C)(C)C)[o+]1.O=S(=O)([O-])C(F)(F)F,> 100,> 100,50,> 100,> 100,> 100,> 100,–,–,–,–,–,–,–,–,–,–
CCCCN(CCCC)c1ccc(/C=C/c2cc(C(C)(C)C)[o+]c(C(C)(C)C)c2)cc1.O=S(=O)([O-])C(F)(F)F,> 100,> 100,> 100,> 100,> 100,> 100,> 100,–,–,–,–,–,–,–,–,–,–
CCn1c2ccccc2c2cc(/C=C/c3cc(C(C)(C)C)[o+]c(C(C)(C)C)c3)ccc21.O=S(=O)([O-])C(F)(F)F,> 100,> 100,> 100,> 100,> 100,> 100,> 100,–,–,–,–,–,–,–,–,–,–
CCCN(CCC)c1ccc(/C=C/c2cc(C(C)(C)C)[o+]c(C(C)(C)C)c2)cc1.O=S(=O)([O-])C(F)(F)F,> 100,> 100,> 100,> 100,> 100,> 100,> 100,–,–,–,–,–,–,–,–,–,–
CC(C)(C)c1cc(NC(=O)/C=C/C=C/c2ccccc2)cc(C(C)(C)C)c1,> 100,> 100,> 100,> 100,> 100,> 100,> 100,–,–,–,–,–,–,–,–,–,–
CN(CCCl)c1ccc(/C=C/c2cc(C(C)(C)C)[o+]c(C(C)(C)C)c2)cc1.O=S(=O)([O-])C(F)(F)F,> 100,> 100,> 100,> 100,> 100,> 100,> 100,–,–,–,–,–,–,–,–,–,–
NCC[C@H](O)C(=O)N[C@@H]1C[C@H](N)[C@@H](O[C@H]2O[C@H](CN)[C@@H](O)[C@H](O)[C@H]2O)[C@H](O)[C@H]1O[C@H]1O[C@H](CO)[C@@H](O)[C@H](N)[C@H]1O [AMIKACIN],6.25,0.78,0.78,50,1.56,0.2,0.78,> 100,> 100,> 100,> 100,50,> 100,> 100,> 100,100,> 100
CC(C)Oc1ccc(/C=C/c2cc(C(C)(C)C)[o+]c(C(C)(C)C)c2)cc1.O=S(=O)([O-])C(F)(F)F,> 100,> 100,> 100,> 100,> 100,> 100,> 100,–,–,–,–,–,–,–,–,–,–
CCOc1ccc(/C=C/c2cc(C(C)(C)C)[o+]c(C(C)(C)C)c2)cc1OC.O=S(=O)([O-])C(F)(F)F,> 100,> 100,> 100,> 100,> 100,> 100,> 100,–,–,–,–,–,–,–,–,–,–
CC(=O)OCCN(CCOC(C)=O)c1ccc(/C=C/c2cc(C(C)(C)C)[o+]c(C(C)(C)C)c2)cc1.O=S(=O)([O-])C(F)(F)F,> 100,> 100,> 100,> 100,> 100,> 100,> 100,–,–,–,–,–,–,–,–,–,–
CC(C)(C)c1cc(NC(=O)/C=C/c2cc3ccccc3o2)cc(C(C)(C)C)c1,> 100,> 100,> 100,> 100,> 100,> 100,> 100,–,–,–,–,–,–,–,–,–,–
CN(C)c1ccc(/C=C/C=C/c2cc(C(C)(C)C)[o+]c(C(C)(C)C)c2)cc1.O=S(=O)([O-])C(F)(F)F,> 100,> 100,> 100,> 100,> 100,> 100,> 100,–,–,–,–,–,–,–,–,–,–
CC(C)(C)c1cc(/C=C/c2ccc(N(CCCl)CCCl)cc2)cc(C(C)(C)C)[o+]1.O=S(=O)([O-])C(F)(F)F,> 100,> 100,> 100,> 100,> 100,> 100,> 100,–,–,–,–,–,–,–,–,–,–
CC(C)(C)c1cc(NC(=O)/C=C/C=C/c2ccccc2Cl)cc(C(C)(C)C)c1,> 100,> 100,> 100,> 100,> 100,> 100,> 100,–,–,–,–,–,–,–,–,–,–
Cn1c(=O)n(C)c2cc(/C=C/c3cc(C(C)(C)C)[o+]c(C(C)(C)C)c3)ccc21.O=S(=O)([O-])C(F)(F)F,> 100,> 100,> 100,> 100,> 100,> 100,> 100,–,–,–,–,–,–,–,–,–,–
CN(CCC#N)c1ccc(/C=C/c2cc(C(C)(C)C)[o+]c(C(C)(C)C)c2)cc1.O=S(=O)([O-])C(F)(F)F,> 100,> 100,> 100,> 100,> 100,> 100,> 100,–,–,–,–,–,–,–,–,–,–
COc1ccc(/C=C/c2cc(C(C)(C)C)[o+]c(C(C)(C)C)c2)c(Cl)c1.O=S(=O)([O-])C(F)(F)F,> 100,> 100,> 100,> 100,> 100,> 100,> 100,–,–,–,–,–,–,–,–,–,–
CC(C)(C)c1cc(/C=C/c2ccc(N(c3ccccc3)c3ccccc3)cc2)cc(C(C)(C)C)[o+]1.O=S(=O)([O-])C(F)(F)F,> 100,> 100,> 100,> 100,> 100,> 100,> 100,–,–,–,–,–,–,–,–,–,–
CCN(CCCl)c1ccc(/C=C/c2cc(C(C)(C)C)[o+]c(C(C)(C)C)c2)cc1.O=S(=O)([O-])C(F)(F)F,> 100,> 100,> 100,> 100,> 100,> 100,> 100,–,–,–,–,–,–,–,–,–,–
CC(C)(C)c1cc(/C=C/c2ccc3c(c2)CCO3)cc(C(C)(C)C)[o+]1.O=S(=O)([O-])C(F)(F)F,> 100,> 100,> 100,> 100,> 100,> 100,> 100,–,–,–,–,–,–,–,–,–,–

# Reference: ChEMBL document CHEMBL6109078, “Pyrylium derivatives as outer membrane permeabilizers against MDR gram-negative bacteria via multi-target mode of action” (Eur J Med Chem, 2025)
